From patent US20230302159A1, “COMPOUNDS AND COMPOSITIONS FOR TUMOR DETECTION AND SURGICAL GUIDANCE” (Cornell University, priority 2020, published 2023)
“And” between values parts separate entries of the source, which are not always exact repeats. Equal entries are not always repeated. “Also recorded” adds a separate entry of the source.

What was measured:
[1] = tested on: SKOV3/GFP-Luc subcutaneous tumors; assay: In vivo fluorescence imaging of subcutaneous tumors by spraying, SKOV3/GFP-Luc model; design: species or system mice; conditions: for signal to background ratio: 2 μM
Method: (§1) Tumor models of subcutaneous implants and peritoneal implants. All animal procedures were carried out in compliance with the approved animal protocols and guidelines of the Institutional Animal Care and Use Committee at Weil Cornell Medical College. Mice (female, SCID Hairless Outbred Mouse) were purchased from Charles River (Wilmington, MA). To establish the subcutaneous implants, a suspension of OVASAHO/RFP-Luc cells (5.0×10^6) or SKOV3/GFP-Luc cells (5.0×10^6) in 100 μL PBS was inoculated into each flank of the female nude mice on both sides. After two weeks, the tumor implants grew to around 5 mm in size and were used for the spray experiment. To establish the peritoneal implants, SKOV3/GFP-Luc cells (5.0×10^6) suspended in […] were injected into the abdominal cavities of the female nude mice. After two weeks, the tumor growth was examined with an in vivo bioluminescence imaging system followed by peritoneal injection of D-luciferin potassium solution (200 μL, 15 mg/mL) for 10 min. Generally, mice bearing multiple disseminated peritoneal implants of 5 mm size in diameter were used for the experiment.
In vivo fluorescence imaging of subcutaneous tumors. Two subcutaneous tumor models (OVASAHO/RFP-Luc and SKOV3/GFP-Luc) were used to compare the imaging capability of CypH-11, CypH-1, and Cy7. Mice bearing the subcutaneous implants were anesthetized in an induction chamber using 2% isoflurane, and anesthesia was maintained with 1.5-2.0% isoflurane via a nose cone. Sterile surgical tools were used to remove skin around the tumor. The mice images were captured using an IVIS SpectrumCT System from PerkinElmer (Waltham, MA). OVASAHO/RFP-Luc and SKOV3/GFP-Luc tumors were captured under an RFP channel (Excitation: 520-550 nm and Emission: 570-590 nm) and a GFP channel (Excitation: 450-480 nm and Emission: 510 530 nm), respectively. A Cy7 channel (Excitation: 730-760 nm and Emission: 790-810 nm) was applied to evaluate the fluorescence generated by CypH-11, CypH-1, and Cy7. After skin removal, the tumor area and the background fluorescence under the Cy7 channel were measured first. Solutions of CypH-11, CypH-1, and Cy7 (2 μM each) were sprayed on the surgical area, and the fluorescence of the Cy7 channel was measured continuously at each time point (1, 3, 5, 7, 10, and 15 min). Ten, five, and three OVASAHO tumors were used to evaluate CypH-11, CypH-1, and Cy7, respectively. Six SKOV3 tumors were used to evaluate CypH-11. To evaluate the tumor-to-normal tissue ratio, the whole tumor regions and the adjacent open-skin areas were drawn, and their fluorescence intensity was acquired by the IVIS software. Tumor-to-normal tissue ratio value was calculated as the average fluorescence intensity of the tumor divided by that of the normal area. Also, tumor-bearing mice were euthanized by carbon dioxide inhalation or a high dose of isoflurane (5%). The subcutaneous tumors and the adjacent muscles were then extracted, and CypH-11 (2 μM) was sprayed onto them. Images were subsequently captured under GFP/RFP/Cy7 channels.
(§2) Histology. To gain knowledge about the CypH-11 distribution in tumors after administration via spray and i.p. injection, the tumors were excised and analyzed. […] The slides were imaged first with a fluorescence microscope (EVOS, Thermofisher Scientific, Waltham, MA) and were subsequently stained with hematoxylin and eosin Y solution (H&E) to assess their histologic alterations under a light microscope.

[2] = tested on: SKOV3/GFP-Luc disseminated peritoneal tumors; assay: In vivo fluorescence imaging of disseminated peritoneal tumors after IP administration; design: species or system mice
Method: as §1
In vivo fluorescence imaging of disseminated peritoneal tumors. […] The fluorescence images were captured for the whole cavity under both the GFP and Cy7 channels. […] Regions of interest (ROI, n=6, and average area=0.28±0.1 cm^2) within the tumor nodules and in the adjacent normal areas in the peritoneal cavity were drawn and calculated for tumor-to-normal tissue ratio.
as §2

CC(C)N(C)c1ccc(OC2=C(/C=C/C3=[N+](C(C)C)c4ccccc4C3(C)C)CCC/C2=C\C=C2\N(C(C)C)c3ccccc3C2(C)C)cc1.[I-] [CypH-11]
signal to background ratio ([1]; 1 min after spray): 1.3
signal to background ratio ([1]; 5 min after spray): 1.4
signal to background ratio ([1]; 10 min after spray): 1.6
NIR signal depth in tumor after spray ([1]; sprayed, 15 min, histology): 2-3 layers of cells
CypH-11 signal when sprayed ex vivo on excised 20-min old dead tissues ([1]; tumor and muscle excised, held 20 min, then sprayed): no NIR signal could be detected; also recorded: No CypH-11 signal in tumor or muscle was observed
tumor signal higher than the background of the peritoneum, liver, and intestine ([2]; 1 h post IP, 200 μL 2 μM in PBS): 3- to 4 fold
size of smallest tumors detected ([2]; 1 h post IP, no washing): 1 mm and < 1 mm
NIR signal depth in tumor after IP injection ([2]; IP, within an hour, histology): 6-7 layers of cells
